Measured values taken from patent US20250345512A1, “COMBINATION SODIUM-GLUCOSE COTRANSPORTER INHIBITOR (SGLTI) INSULIN THERAPY FOR GLYCEMIC CONTROL IN TYPE 1 DIABETES” (University of Virginia Patent Foundation, priority 2022, published 2025).

Tested on: participants with T1D
Set-up: species or system human
Details: in vivo
Method: FIG. 2 presents a study analysis relative to baseline, control IQ (CIQ) (e.g., AID), and basal IQ (BIQ) (e.g., PLGS) implementation, according to investigation that is demonstrable of one or more embodiments herein. Therein, an experimental arm (G1, G2) providing an initial daily dose of 5 mg empagliflozin (EMPA) is depicted against a control arm (G3, G4) without such dosing (NOEMPA). Relative characteristics of the analysis are provided below.
Study Design: A single-center, randomized, controlled, unblinded, crossover clinical trial (NCT04201496) compared four parallel groups, two groups in the experimental arm (EMPA) with 5 mg daily empagliflozin as adjunctive therapy to PLGS or AID, and two groups in the control arm (NOEMPA) with no drug and with a PLGS system (Basal-IQ, Tandem Diabetes Care) or AID system (Control-IQ, Tandem Diabetes Care). […] A tolerance to the medication was assessed prior to the starting of the next study phase, including adherence to the protocol, ketone testing 2-4 times per day with monitored values not greater than 0.6 mmol/L on at least two successive occasions (the first testing upon waking in a fasted state), no adverse events relating to perineal infection or symptomatic postural hypotension, and no evidence of significant hypoglycemia <54 mg/dL, or any other listed adverse effects of the medication. […]

OC[C@H]1O[C@@H](c2ccc(Cl)c(Cc3ccc(O[C@H]4CCOC4)cc3)c2)[C@H](O)[C@@H](O)[C@@H]1O [CIQ-EMPA, empagliflozin]
Difference (95% CI): Ketones: 0.02 mmol/L
